Patent US11725011B2, “Bicyclic urea kinase inhibitors and uses thereof” (The Broad Institute, Inc., priority 2016, dated 2023)

Assays:
Assay in all cases: KINOMEscan
Format in all cases: binding
Settings in all cases: 1 uM
INSRR = INSRR (Homo sapiens (Human), UniProt P14616)
STK16 = STK16 (Homo sapiens (Human), UniProt O75716)
MRCKA = MRCKA (Homo sapiens (Human), UniProt Q5VT25)
CSK = CSK (Homo sapiens (Human), UniProt P41240)
MLK2 = MLK2 (Homo sapiens (Human), UniProt Q02779)
SRMS = SRMS (Homo sapiens (Human), UniProt Q9H3Y6)
RIPK4 = RIPK4 (Homo sapiens (Human), UniProt P57078)
RIPK4, sequence (P57078 whole entry): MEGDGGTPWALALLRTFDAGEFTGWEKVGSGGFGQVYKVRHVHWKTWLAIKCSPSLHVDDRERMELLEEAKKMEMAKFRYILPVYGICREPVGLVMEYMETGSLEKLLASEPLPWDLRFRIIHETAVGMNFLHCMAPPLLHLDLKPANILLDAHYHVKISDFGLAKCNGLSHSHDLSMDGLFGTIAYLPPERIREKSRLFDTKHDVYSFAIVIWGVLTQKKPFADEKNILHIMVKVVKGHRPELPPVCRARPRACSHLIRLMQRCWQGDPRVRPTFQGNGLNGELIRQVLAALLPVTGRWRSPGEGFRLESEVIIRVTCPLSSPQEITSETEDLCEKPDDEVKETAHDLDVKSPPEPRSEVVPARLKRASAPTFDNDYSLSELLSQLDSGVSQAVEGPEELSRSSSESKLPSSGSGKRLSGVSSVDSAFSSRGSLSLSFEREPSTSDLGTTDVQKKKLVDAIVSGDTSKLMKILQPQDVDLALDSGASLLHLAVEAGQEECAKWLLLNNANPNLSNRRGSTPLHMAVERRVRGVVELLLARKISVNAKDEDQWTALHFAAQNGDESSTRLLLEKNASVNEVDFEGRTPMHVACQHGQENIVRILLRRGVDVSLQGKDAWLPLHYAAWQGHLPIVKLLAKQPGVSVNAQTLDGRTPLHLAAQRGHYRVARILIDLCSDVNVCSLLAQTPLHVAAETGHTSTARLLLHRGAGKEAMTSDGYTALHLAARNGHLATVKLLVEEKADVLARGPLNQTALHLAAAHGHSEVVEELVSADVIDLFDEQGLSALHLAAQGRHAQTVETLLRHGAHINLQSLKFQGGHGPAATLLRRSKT

LTK = LTK (Homo sapiens (Human), UniProt P29376)
LTK, sequence (P29376 17-864): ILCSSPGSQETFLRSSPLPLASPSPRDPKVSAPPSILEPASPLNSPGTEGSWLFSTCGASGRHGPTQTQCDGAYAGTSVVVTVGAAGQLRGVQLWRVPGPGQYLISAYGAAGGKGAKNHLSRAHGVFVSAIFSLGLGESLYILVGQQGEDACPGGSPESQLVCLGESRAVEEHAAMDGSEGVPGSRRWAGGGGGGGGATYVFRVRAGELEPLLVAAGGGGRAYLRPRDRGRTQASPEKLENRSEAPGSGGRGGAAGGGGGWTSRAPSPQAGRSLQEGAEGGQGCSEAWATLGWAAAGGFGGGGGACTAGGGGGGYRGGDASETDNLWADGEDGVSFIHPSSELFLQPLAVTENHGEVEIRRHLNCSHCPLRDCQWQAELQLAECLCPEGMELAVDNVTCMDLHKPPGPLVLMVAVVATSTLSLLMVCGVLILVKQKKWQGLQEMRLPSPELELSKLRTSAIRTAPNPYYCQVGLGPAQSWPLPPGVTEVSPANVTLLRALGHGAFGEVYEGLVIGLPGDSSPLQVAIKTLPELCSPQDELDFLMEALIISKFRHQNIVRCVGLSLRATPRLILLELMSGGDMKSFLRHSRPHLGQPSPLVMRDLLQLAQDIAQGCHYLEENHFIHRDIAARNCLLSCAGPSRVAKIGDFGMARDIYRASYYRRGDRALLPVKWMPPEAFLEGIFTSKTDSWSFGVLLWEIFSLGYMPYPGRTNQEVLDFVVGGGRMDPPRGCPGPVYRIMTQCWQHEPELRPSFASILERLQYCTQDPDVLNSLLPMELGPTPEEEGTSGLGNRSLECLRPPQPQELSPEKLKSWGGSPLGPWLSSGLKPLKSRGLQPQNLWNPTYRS

DLK = DLK (Homo sapiens (Human), UniProt Q12852)
ULK1 = ULK1 (Homo sapiens (Human), UniProt O75385)
PKN1 = PKN1 (Homo sapiens (Human), UniProt Q16512)
PKN1, sequence (Q16512 whole entry): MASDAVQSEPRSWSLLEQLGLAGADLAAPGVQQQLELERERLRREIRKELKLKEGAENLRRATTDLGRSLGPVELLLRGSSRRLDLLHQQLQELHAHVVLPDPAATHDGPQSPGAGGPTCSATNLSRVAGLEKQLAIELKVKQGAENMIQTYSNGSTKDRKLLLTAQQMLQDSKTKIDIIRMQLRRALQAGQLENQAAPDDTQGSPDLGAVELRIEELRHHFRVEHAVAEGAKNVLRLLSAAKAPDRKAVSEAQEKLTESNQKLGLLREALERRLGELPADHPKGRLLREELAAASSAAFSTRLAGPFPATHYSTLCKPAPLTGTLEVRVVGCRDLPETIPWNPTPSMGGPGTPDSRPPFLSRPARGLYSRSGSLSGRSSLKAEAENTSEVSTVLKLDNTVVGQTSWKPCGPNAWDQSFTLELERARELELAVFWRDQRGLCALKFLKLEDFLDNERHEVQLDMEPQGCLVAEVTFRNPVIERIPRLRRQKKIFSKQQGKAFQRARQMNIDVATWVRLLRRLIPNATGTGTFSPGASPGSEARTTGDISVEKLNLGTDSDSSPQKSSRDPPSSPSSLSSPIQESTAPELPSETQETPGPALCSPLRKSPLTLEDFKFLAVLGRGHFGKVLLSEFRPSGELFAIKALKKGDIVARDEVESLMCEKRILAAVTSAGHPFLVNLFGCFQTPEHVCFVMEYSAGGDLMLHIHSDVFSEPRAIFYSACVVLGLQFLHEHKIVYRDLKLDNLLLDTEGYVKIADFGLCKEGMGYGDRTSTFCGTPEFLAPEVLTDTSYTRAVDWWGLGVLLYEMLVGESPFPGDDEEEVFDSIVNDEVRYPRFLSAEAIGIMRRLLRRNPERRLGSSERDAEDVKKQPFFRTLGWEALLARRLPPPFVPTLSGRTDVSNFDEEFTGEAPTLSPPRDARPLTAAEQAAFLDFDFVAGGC

[1] = molecular target: RSK4 (Kin.Dom.2-C-terminal) (Homo sapiens (Human), UniProt Q9UK32)
MST1R = MST1R (Homo sapiens (Human), UniProt Q04912)
CAMK2B = CAMK2B (Homo sapiens (Human), UniProt Q13554)
CAMK2B, sequence (Q13554 whole entry): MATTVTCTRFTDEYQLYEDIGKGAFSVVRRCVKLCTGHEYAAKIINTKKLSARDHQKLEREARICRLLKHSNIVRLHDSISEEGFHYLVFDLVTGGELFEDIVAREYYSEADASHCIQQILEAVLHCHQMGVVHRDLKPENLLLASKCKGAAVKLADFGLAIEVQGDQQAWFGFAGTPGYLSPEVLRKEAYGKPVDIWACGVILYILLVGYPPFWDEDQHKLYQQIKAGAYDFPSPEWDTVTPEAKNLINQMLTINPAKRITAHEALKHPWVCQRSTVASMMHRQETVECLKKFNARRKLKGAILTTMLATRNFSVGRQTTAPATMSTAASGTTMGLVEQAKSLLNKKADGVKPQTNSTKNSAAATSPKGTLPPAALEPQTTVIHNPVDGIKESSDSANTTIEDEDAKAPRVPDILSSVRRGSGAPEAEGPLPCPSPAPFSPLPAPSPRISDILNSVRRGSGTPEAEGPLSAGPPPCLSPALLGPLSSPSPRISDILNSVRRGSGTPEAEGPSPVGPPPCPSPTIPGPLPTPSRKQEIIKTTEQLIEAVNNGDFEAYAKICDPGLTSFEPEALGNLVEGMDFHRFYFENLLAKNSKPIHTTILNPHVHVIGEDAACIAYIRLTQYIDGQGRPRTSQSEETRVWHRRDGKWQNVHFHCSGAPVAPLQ

IKK-alpha = IKK-alpha (Homo sapiens (Human), UniProt O15111)
IKK-alpha, sequence (O15111 whole entry): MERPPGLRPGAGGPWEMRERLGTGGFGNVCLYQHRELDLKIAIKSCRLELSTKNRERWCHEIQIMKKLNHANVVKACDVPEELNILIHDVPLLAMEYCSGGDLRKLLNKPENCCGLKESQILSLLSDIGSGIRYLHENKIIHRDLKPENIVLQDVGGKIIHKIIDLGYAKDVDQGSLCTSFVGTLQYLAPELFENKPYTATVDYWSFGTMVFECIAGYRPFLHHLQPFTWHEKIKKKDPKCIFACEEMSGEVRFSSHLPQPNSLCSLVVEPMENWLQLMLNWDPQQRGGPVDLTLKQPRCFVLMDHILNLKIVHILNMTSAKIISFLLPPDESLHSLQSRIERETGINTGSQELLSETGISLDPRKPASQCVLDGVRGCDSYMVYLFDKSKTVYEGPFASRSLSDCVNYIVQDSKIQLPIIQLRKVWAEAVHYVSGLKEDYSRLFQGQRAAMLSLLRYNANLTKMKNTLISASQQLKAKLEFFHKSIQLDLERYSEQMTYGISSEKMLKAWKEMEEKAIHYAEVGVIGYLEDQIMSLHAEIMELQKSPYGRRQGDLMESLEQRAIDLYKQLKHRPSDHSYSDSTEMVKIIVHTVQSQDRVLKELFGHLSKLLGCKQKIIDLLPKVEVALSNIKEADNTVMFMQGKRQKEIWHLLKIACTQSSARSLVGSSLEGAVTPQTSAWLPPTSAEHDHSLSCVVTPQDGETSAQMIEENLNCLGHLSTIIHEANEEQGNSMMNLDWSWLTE

PAK3 = PAK3 (Homo sapiens (Human), UniProt O75914)
PAK3, sequence (O75914 whole entry): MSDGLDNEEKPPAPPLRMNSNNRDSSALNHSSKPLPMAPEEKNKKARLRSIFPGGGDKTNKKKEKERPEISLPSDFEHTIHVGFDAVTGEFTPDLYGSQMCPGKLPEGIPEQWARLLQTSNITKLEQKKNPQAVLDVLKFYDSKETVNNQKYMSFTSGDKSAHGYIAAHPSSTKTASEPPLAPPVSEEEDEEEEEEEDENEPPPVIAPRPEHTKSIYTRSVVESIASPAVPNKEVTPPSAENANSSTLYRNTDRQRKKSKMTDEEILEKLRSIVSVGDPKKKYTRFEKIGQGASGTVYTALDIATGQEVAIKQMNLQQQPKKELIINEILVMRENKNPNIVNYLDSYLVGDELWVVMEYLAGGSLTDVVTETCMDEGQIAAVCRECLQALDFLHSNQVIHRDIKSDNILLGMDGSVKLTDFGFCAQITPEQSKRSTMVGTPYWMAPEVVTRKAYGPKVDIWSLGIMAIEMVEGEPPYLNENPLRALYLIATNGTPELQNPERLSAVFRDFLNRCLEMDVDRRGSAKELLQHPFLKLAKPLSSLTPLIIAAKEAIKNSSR

RIPK1 = RIPK1 (Homo sapiens (Human), UniProt Q13546)
BIKE = BIKE (Homo sapiens (Human), UniProt Q9NSY1)
ULK3 = ULK3 (Homo sapiens (Human), UniProt Q6PHR2)
CAMK2A = CAMK2A (Homo sapiens (Human), UniProt Q9UQM7)
αK3A = αK3A (Homo sapiens (Human), UniProt P49840)
αK3A, sequence (P49840 whole entry): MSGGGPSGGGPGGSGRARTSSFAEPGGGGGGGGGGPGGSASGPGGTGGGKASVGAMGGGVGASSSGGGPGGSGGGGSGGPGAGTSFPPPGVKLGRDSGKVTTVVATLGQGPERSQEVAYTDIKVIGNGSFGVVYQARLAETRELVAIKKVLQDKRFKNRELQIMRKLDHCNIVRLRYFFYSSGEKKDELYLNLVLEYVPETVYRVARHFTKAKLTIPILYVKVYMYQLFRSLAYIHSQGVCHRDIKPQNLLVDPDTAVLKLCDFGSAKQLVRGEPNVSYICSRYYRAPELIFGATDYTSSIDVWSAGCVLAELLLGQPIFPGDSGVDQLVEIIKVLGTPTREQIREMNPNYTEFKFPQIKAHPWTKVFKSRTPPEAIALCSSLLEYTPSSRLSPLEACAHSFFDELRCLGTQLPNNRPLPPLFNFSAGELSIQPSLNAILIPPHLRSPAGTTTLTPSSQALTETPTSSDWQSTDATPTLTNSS

FLT1 = FLT1 (Homo sapiens (Human), UniProt P17948)
PAK1 = PAK1 (Homo sapiens (Human), UniProt Q13153)
CAMK1D = CAMK1D (Homo sapiens (Human), UniProt Q8IU85)
PFPK5 (P. falciparum) = PFPK5 (P. falciparum) (Plasmodium falciparum (isolate 3D7), UniProt P61075)
TIE1 = TIE1 (Homo sapiens (Human), UniProt P35590)
TAOK2 = TAOK2 (Homo sapiens (Human), UniProt Q9UL54)
FGFR4 = FGFR4 (Homo sapiens (Human), UniProt P22455)
PRKD3 = PRKD3 (Homo sapiens (Human), UniProt O94806)
PIK3CA (E545A) = PIK3CA (E545A) (Homo sapiens (Human), UniProt P42336, E545A)
MAK = MAK (Homo sapiens (Human), UniProt P20794)
CDKL1 = CDKL1 (Homo sapiens (Human), UniProt Q00532)
MYO3B = MYO3B (Homo sapiens (Human), UniProt Q8WXR4)
ABL2 = ABL2 (Homo sapiens (Human), UniProt P42684)
PRKCH = PRKCH (Homo sapiens (Human), UniProt P24723)
ARK5 = ARK5 (Homo sapiens (Human), UniProt O60285)
MST1 = MST1 (Homo sapiens (Human), UniProt Q13043)
OSR1 = OSR1 (Homo sapiens (Human), UniProt O95747)
SGK3 = SGK3 (Homo sapiens (Human), UniProt Q96BR1)
CDKL2 = CDKL2 (Homo sapiens (Human), UniProt Q92772)
HPK1 = HPK1 (Homo sapiens (Human), UniProt Q92918)
ACVR2A = ACVR2A (Homo sapiens (Human), UniProt P27037)

## COc1ccc(N2C(=O)N(c3c(C)cccc3C)Cc3cnc(Nc4ccc(N5CCN(C)CC5)cc4)nc32)c(OC)c1 [HG-11-136-01]
INSRR
  KINOMEscan INSRR: 100
STK16
  KINOMEscan STK16: 5.6
MRCKA
  KINOMEscan MRCKA: 99
CSK
  KINOMEscan CSK: 0.3
MLK2
  KINOMEscan MLK2: 11
SRMS
  KINOMEscan SRMS: 0
RIPK4
  KINOMEscan RIPK4: 55
LTK
  KINOMEscan LTK: 18
DLK
  KINOMEscan DLK: 6.6
ULK1
  KINOMEscan ULK1: 3.2
PKN1
  KINOMEscan PKN1: 95
[1]
  KINOMEscan RSK4 (Kin.Dom.2-C-terminal): 4
MST1R
  KINOMEscan MST1R: 100
CAMK2B
  KINOMEscan CAMK2B: 90
IKK-alpha
  KINOMEscan IKK-alpha: 99
PAK3
  KINOMEscan PAK3: 11
RIPK1
  KINOMEscan RIPK1: 35
BIKE
  KINOMEscan BIKE: 8.8
ULK3
  KINOMEscan ULK3: 2
CAMK2A
  KINOMEscan CAMK2A: 93
αK3A
  KINOMEscan αK3A: 100
FLT1
  KINOMEscan FLT1: 5.2
PAK1
  KINOMEscan PAK1: 3.7
CAMK1D
  KINOMEscan CAMK1D: 68
PFPK5 (P. falciparum)
  KINOMEscan PFPK5 (P. falciparum): 96
TIE1
  KINOMEscan TIE1: 30
TAOK2
  KINOMEscan TAOK2: 0
FGFR4
  KINOMEscan FGFR4: 2
PRKD3
  KINOMEscan PRKD3: 5.4
PIK3CA (E545A)
  KINOMEscan PIK3CA (E545A): 69
MAK
  KINOMEscan MAK: 100
CDKL1
  KINOMEscan CDKL1: 84
MYO3B
  KINOMEscan MYO3B: 29
ABL2
  KINOMEscan ABL2: 0.35
PRKCH
  KINOMEscan PRKCH: 100
ARK5
  KINOMEscan ARK5: 8.2
MST1
  KINOMEscan MST1: 2.1
OSR1
  KINOMEscan OSR1: 49
SGK3
  KINOMEscan SGK3: 77
CDKL2
  KINOMEscan CDKL2: 14
HPK1
  KINOMEscan HPK1: 0.95
ACVR2A
  KINOMEscan ACVR2A: 5
